How the values were obtained:
[1] = target: JAK2 (recombinant purified GST-tagged catalytic domain) (Homo sapiens (Human), UniProt O60674); assay: Jak Biochemical HTRF Assay (JAK2); conditions: [ATP] 8.5 μM
[2] = target: JAK1 (recombinant purified GST-tagged catalytic domain) (Homo sapiens (Human), UniProt P23458); assay: Jak Biochemical HTRF Assay (JAK1); conditions: [ATP] 31.8 μM
How it was run: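 HTRF format, biotinylated peptide substrate; ATP-initiated reaction 120 min RT; EDTA quench + streptavidin-Dylight 650/Eu-anti-pY20 detection, 60 min RT; signal = 665/615 ratio ×10,000; normalized % inhibition, 4-parameter fit → IC50.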

Sequence of JAK2 (recombinant purified GST-tagged catalytic domain) (O60674 849-1124): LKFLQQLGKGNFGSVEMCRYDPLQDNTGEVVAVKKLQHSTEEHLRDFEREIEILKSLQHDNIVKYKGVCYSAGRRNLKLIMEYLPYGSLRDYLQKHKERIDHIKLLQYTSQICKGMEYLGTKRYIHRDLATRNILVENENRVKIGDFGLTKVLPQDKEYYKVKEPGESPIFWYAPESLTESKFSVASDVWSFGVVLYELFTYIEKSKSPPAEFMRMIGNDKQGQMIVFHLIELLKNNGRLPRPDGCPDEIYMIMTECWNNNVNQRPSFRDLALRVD
Sequence of JAK1 (recombinant purified GST-tagged catalytic domain) (P23458 875-1153): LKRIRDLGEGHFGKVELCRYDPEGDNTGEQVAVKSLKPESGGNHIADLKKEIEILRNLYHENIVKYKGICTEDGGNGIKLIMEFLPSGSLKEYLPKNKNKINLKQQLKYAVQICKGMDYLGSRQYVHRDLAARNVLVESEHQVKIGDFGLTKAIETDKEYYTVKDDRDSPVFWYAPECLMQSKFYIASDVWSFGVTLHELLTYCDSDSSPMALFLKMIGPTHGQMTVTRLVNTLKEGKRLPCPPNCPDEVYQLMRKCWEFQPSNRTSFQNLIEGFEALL

CC(C)(C)OC(=O)N1CCC(CC#N)(n2nc(Nc3ccc(F)cc3)c3c(=O)[nH]ccc32)CC1 [Example 5-48, tert-butyl 4-(cyanomethyl)-4-{3-[(4-fluorophenyl)amino]-4-oxo-4,5-dihydro-1H-pyrazolo[4,3-c]pyridin-1-yl}piperidine-1-carboxylate]
IC50 [1]: 2.26 nM
IC50 [2]: 0.22 nM

CC(C)(C)OC(=O)[C@@H]1CC[C@@](CC#N)(n2nc(Nc3ccccc3)c3c(=O)[nH]ccc32)CO1 [Example 5-54, (2S,5S)-tert-butyl 5-(cyanomethyl)-5-(4-oxo-3-(phenylamino)-4,5-dihydro-1H-pyrazolo[4,3-c]pyridin-1-yl)tetrahydro-2H-pyran-2-carboxylate]
IC50 [1]: 1.62 nM
IC50 [2]: 0.12 nM

CN1Cc2cc(Nc3nn([C@]4(CC#N)CC[C@@H](C(=O)OC(C)(C)C)OC4)c4cc[nH]c(=O)c34)ccc2S1(=O)=O [Example 5-55, (2S,5S)-tert-butyl 5-(cyanomethyl)-5-(3-((2-methyl-1,1-dioxido-2,3-dihydrobenzo[d]isothiazol-5-yl)amino)-4-oxo-4,5-dihydro-1H-pyrazolo[4,3-c]pyridin-1-yl)tetrahydro-2H-pyran-2-carboxylate]
IC50 [1]: 0.12 nM
IC50 [2]: 0.05 nM

CC(C)(C)NS(=O)(=O)c1ccc(Nc2nn(C3(CC#N)CCN(C(=O)C(C)(F)F)CC3)c3cc[nH]c(=O)c23)cc1 [Example 5-56, N-(tert-butyl)-4-((1-(4-(cyanomethyl)-1-(2,2-difluoropropanoyl)piperidin-4-yl)-4-oxo-4,5-dihydro-1H-pyrazolo[4,3-c]pyridin-3-yl)amino)benzene-sulfonamide]
IC50 [1]: 0.19 nM
IC50 [2]: 0.12 nM

CC(C)S(=O)(=O)c1ccc(Nc2nn(C3(CC#N)CCN(C(=O)C(C)(F)F)CC3)c3cc[nH]c(=O)c23)cc1 [Example 5-57, 2-(1-(2,2-difluoropropanoyl)-4-(3-((4-(isopropylsulfonyl)phenyl)amino)-4-oxo-4,5-dihydro-1H-pyrazolo[4,3-c]pyridin-1-yl)piperidin-4-yl)acetonitrile]
IC50 [1]: 0.13 nM
IC50 [2]: 0.08 nM

CN(C(C)(C)C)S(=O)(=O)c1ccc(Nc2nn(C3(CC#N)CCN(C(=O)C(C)(F)F)CC3)c3cc[nH]c(=O)c23)cc1 [Example 5-58, N-(tert-butyl)-4-((1-(4-(cyanomethyl)-1-(2,2-difluoropropanoyl)piperidin-4-yl)-4-oxo-4,5-dihydro-1H-pyrazolo[4,3-c]pyridin-3-yl)amino)-N-methylbenzenesulfonamide]
IC50 [1]: 0.18 nM
IC50 [2]: 0.14 nM

CC(F)(F)C(=O)N1CCC(CC#N)(n2nc(Nc3ccc(S(=O)(=O)C(C)(C)C)cc3)c3c(=O)[nH]ccc32)CC1 [Example 5-59, 2-(4-(3-((4-(tert-butylsulfonyl)phenyl)amino)-4-oxo-4,5-dihydro-1H-pyrazolo[4,3-c]pyridin-1-yl)-1-(2,2-difluoro-propanoyl)piperidin-4-yl)acetonitrile]
IC50 [1]: 0.15 nM
IC50 [2]: 0.1 nM

CC(C)(C)OC(=O)N1CCC(CC#N)(n2nc(Nc3cc(Cn4cccn4)cc(Cn4cccn4)c3)c3c(=O)[nH]ccc32)CC1 [Example 5-60, tert-butyl 4-(3-(3,5-bis((1H-pyrazol-1-yl)methyl)phenylamino)-4-oxo-4,5-dihydropyrazolo[4,3-c]pyridin-1-yl)-4-(cyanomethyl)piperidine-1-carboxylate]
IC50 [1]: 0.46 nM
IC50 [2]: 1.07 nM

Cc1cc(C)cc(Nc2nn(C3(CC#N)CCN(C(=O)OC(C)(C)C)CC3)c3cc[nH]c(=O)c23)c1 [Example 5-61, tert-butyl 4-(cyanomethyl)-4-(3-(3,5-dimethylphenylamino)-4-oxo-4,5-dihydropyrazolo[4,3-c]pyridin-1-yl)piperidine-1-carboxylate]
IC50 [1]: 12.7 nM
IC50 [2]: 0.64 nM

CC(C)(C)OC(=O)N1CCC(CC#N)(n2nc(Nc3cc(Cn4ccnn4)cc(Cn4ccnn4)c3)c3c(=O)[nH]ccc32)CC1 [Example 5-62, tert-butyl 4-(3-(3,5-bis((1H-1,2,3-triazol-1-yl)methyl)phenylamino)-4-oxo-4,5-dihydropyrazolo[4,3-c]pyridin-1-yl)-4-(cyanomethyl)piperidine-1-carboxylate]
IC50 [1]: 0.32 nM
IC50 [2]: 0.31 nM

CC(C)(C)OC(=O)N1CCC(CC#N)(n2nc(Nc3cc(Cn4nccn4)cc(Cn4nccn4)c3)c3c(=O)[nH]ccc32)CC1 [Example 5-63, tert-butyl 4-(3-(3,5-bis((2H-1,2,3-triazol-2-yl)methyl)phenylamino)-4-oxo-4,5-dihydropyrazolo[4,3-c]pyridin-1-yl)-4-(cyanomethyl)piperidine-1-carboxylate]
IC50 [1]: 0.7 nM
IC50 [2]: 2.1 nM

CC(C)(C)OC(=O)N1CCC(CC#N)(n2nc(Nc3cc(Cn4ccnn4)cc(Cn4nccn4)c3)c3c(=O)[nH]ccc32)CC1 [Example 5-64, tert-butyl 4-(3-(3-((1H-1,2,3-triazol-1-yl)methyl)-5-((2H-1,2,3-triazol-2-yl)methyl)phenylamino)-4-oxo-4,5-dihydropyrazolo [4,3-c]pyridin-1-yl)-4-(cyanomethyl)piperidine-1-carboxylate]
IC50 [1]: 0.46 nM
IC50 [2]: 0.57 nM

Cc1cccc(Nc2nn(C3(CC#N)CCN(C(=O)OC(C)(C)C)CC3)c3cc[nH]c(=O)c23)c1 [Example 5-65, tert-butyl 4-(3-(m-toluidino)-4-oxo-4,5-dihydropyrazolo[4,3-c]pyridin-1-yl)-4-(cyanomethyl)piperidine-1-carboxylate]
IC50 [1]: 3.22 nM
IC50 [2]: 0.21 nM

CC(C)(C)OC(=O)N1CCC(CC#N)(n2nc(Nc3ccc4c(c3)CNC4)c3c(=O)[nH]ccc32)CC1 [Example 5-66, tert-butyl 4-(cyanomethyl)-4-(3-(isoindolin-5-ylamino)-4-oxo-4,5-dihydropyrazolo[4,3-c]pyridin-1-yl)piperidine-1-carboxylate]
IC50 [1]: 0.43 nM
IC50 [2]: 0.26 nM

CC(C)CN1Cc2cc(Nc3nn(C4(CC#N)CCN(C(=O)OC(C)(C)C)CC4)c4cc[nH]c(=O)c34)ccc2S1(=O)=O [Example 5-67]
IC50 [1]: 0.52 nM
IC50 [2]: 0.47 nM

CC(C)(C)OC(=O)N1CCC(CC#N)(n2nc(Nc3ccc4c(c3)CN(CC3CC3)S4(=O)=O)c3c(=O)[nH]ccc32)CC1 [Example 5-68, tert-butyl 4-(cyanomethyl)-4-(3-{[2-(cyclopropylmethyl)-1,1-dioxo-2,3-dihydro-1,2-benzothiazol-5-yl]amino}-4-oxo-1H,4H,5H-pyrazolo[4,3-c]pyridin-1-yl)piperidine-1-carboxylate]
IC50 [1]: 0.33 nM
IC50 [2]: 0.25 nM

COC(=O)N1CCC(CC#N)(n2nc(Nc3ccc4c(c3)CN(C)S4(=O)=O)c3c(=O)[nH]ccc32)CC1 [Example 5-70, methyl 4-(cyanomethyl)-4-[3-[(2-methyl-1,1-dioxo-2,3-dihydro-1,2-benzothiazol-5-yl)amino]-4-oxo-1H,4H,5H-pyrazolo[4,3-c]pyridin-1-yl]piperidine-1-carboxylate]
IC50 [1]: 0.58 nM
IC50 [2]: 0.07 nM

COC(=O)N1CCC(CC#N)(n2nc(Nc3ccc4c(c3)CN(C(C)(C)C)S4(=O)=O)c3c(=O)[nH]ccc32)CC1 [Example 5-71, methyl 4-{3-[(2-tert-butyl-1,1-dioxo-2,3-dihydro-1,2-benzothiazol-5-yl)amino]-4-oxo-1H,4H,5H-pyrazolo [4,3-c]pyridin-1-yl}-4-(cyanomethyl)piperidine-1-carboxylate]
IC50 [1]: 0.15 nM
IC50 [2]: 0.08 nM

CCN1Cc2cc(Nc3nn(C4(CC#N)CCN(C(=O)OC)CC4)c4cc[nH]c(=O)c34)ccc2S1(=O)=O [Example 5-72, methyl 4-{3-[(2-ethyl-1,1-dioxo-2,3-dihydro-1,2-benzothiazol-5-yl)amino]-4-oxo-1H,4H,5H-pyrazolo [4,3-c]pyridin-1-yl}-4-(cyanomethyl)piperidine-1-carboxylate]
IC50 [1]: 0.26 nM
IC50 [2]: 0.06 nM

COC(=O)N1CCC(CC#N)(n2nc(Nc3ccc4c(c3)CN(CC(C)C)S4(=O)=O)c3c(=O)[nH]ccc32)CC1 [Example 5-73, methyl 4-(cyanomethyl)-4-(3-{[2-(2-methylpropyl)-1,1-dioxo-2,3-dihydro-1,2-benzothiazol-5-yl]amino}-4-oxo-1H,4H,5H-pyrazolo [4,3-c]pyridin-1-yl) piperidine-1-carboxylate]
IC50 [1]: 0.35 nM
IC50 [2]: 0.12 nM

COC(=O)N1CCC(CC#N)(n2nc(Nc3ccc4c(c3)CN(CC3CC3)S4(=O)=O)c3c(=O)[nH]ccc32)CC1 [Example 5-74, methyl 4-(cyanomethyl)-4-(3-{[2-(cyclopropylmethyl)-1,1-dioxo-2,3-dihydro-1,2-benzothiazol-5-yl]amino}-4-oxo-1H,4H,5H-pyrazolo [4,3-c]pyridin-1-yl) piperidine-1-carboxylate]
IC50 [1]: 0.27 nM
IC50 [2]: 0.06 nM

COC(=O)N1CCC(CC#N)(n2nc(Nc3ccc4c(c3)CN(CC3CCCC3)S4(=O)=O)c3c(=O)[nH]ccc32)CC1 [Example 5-75, methyl 4-(cyanomethyl)-4-(3-{[2-(cyclopentylmethyl)-1,1-dioxo-2,3-dihydro-1,2-benzothiazol-5-yl]amino}-4-oxo-1H,4H,5H-pyrazolo [4,3-c]pyridin-1-yl) piperidine-1-carboxylate]
IC50 [1]: 0.37 nM
IC50 [2]: 0.12 nM

CC(C)(C)OC(=O)N1CCC(CC#N)(n2nc(Nc3ccc(S(=O)(=O)C(F)(F)F)cc3)c3c(=O)[nH]ccc32)CC1 [Example 5-76, tert-butyl 4-(cyanomethyl)-4-[4-oxo-3-({4-[(trifluoromethyl)sulfonyl]phenyl}amino)-4,5-dihydro-1H-pyrazolo [4,3-c]pyridin-1-yl] piperidine-1-carboxylate]
IC50 [1]: 7.89 nM
IC50 [2]: 0.9 nM

CC(C)(C)OC(=O)N1CCC(CC#N)(n2nc(Nc3ccnc(F)c3)c3c(=O)[nH]ccc32)CC1 [Example 5-78, tert-butyl 4-(cyanomethyl)-4-{3-[(2-fluoropyridin-4-yl)amino]-4-oxo-4,5-dihydro-1H-pyrazolo[4,3-c]pyridin-1-yl}piperidine-1-carboxylate]
IC50 [1]: 2.12 nM
IC50 [2]: 0.18 nM

From US9957264B2 (Merck Sharp & Dohme Corp., priority 2013, dated 2018)
